Test results as given in patent US11523614B2, “Soluble granule of Bacillus velezensis and its preparation method” (priority 2019, dated 2022).
Read-outs that look alike come from different tables or passages of the source.

Experiments:
Type in all cases: in vivo
Meloidogyne incognita [1] = assay: Population density of J2 of root knot nematodes in soil, cucumber greenhouse; conditions: for Population decline rate / Relative population reduction rate: J2 in soil; for Population decline rate: before administration vs end of test; for Relative population reduction rate: compared with the blank control; for population density of second instar larvae in soil, Before administration / population density of second instar larvae in soil, End of test: cucumber greenhouse soil
cucumber = assay: Cucumber plant height at early stage; conditions: for Growth effect: plant height compared with CK0; for plant height at early stage, Avg. value: average of three replicates; for plant height at early stage, R1: average value of replicate 1; for plant height at early stage, R3: average value of replicate 3
Rice blast [2] = conditions: 27 d After first administration; for Relative control: panicle blast
Rice blast [3] = conditions: for Avg. control effect: leaf blast
Meloidogyne incognita [4] = assay: Root-knot disease index of cucumber; conditions: for root-knot index of plants, Avg. value: average of three replicates; for root-knot index of plants, R1: average value of replicate 1; for root-knot index of plants, R3: average value of replicate 3
[5] = 14 d After first administration
[6] = before the first administration
[7] = root-knot index compared with CK0

Structure (SMILES) | Population decline rate (Meloidogyne incognita [1]) | Relative population reduction rate (Meloidogyne incognita [1]) | Growth effect (cucumber) | Avg. panicle blast disease index (Rice blast [2]) | Relative control (Rice blast [2]) | Avg. leaf blast disease index (Rice blast [3]; 7 d After first administration) | Avg. leaf blast disease index (Rice blast [3]; [5]) | Avg. control effect (Rice blast [3]; 7 d After first administration) | Avg. control effect (Rice blast [3]; [5]) | population density of second instar larvae in soil, Before administration (Meloidogyne incognita [1]) | population density of second instar larvae in soil, End of test (Meloidogyne incognita [1]) | plant height at early stage, Avg. value (cucumber) | plant height at early stage, R1 (cucumber) | plant height at early stage, R3 (cucumber) | root-knot index of plants, Avg. value (Meloidogyne incognita [4]) | root-knot index of plants, R1 (Meloidogyne incognita [4]) | root-knot index of plants, R3 (Meloidogyne incognita [4]) | also measured
C[C@H]1O[C@H](O[C@H]2[C@H](O)[C@@H](O)[C@@H](O)[C@H](O)[C@@H]2O)[C@@H](N)C[C@@H]1NC(=N)C(=O)O [CK2, kasugamycin] | 73.31% | 76.05% | 6.5% | 0.86 | 66.3A % | 2.26 | 2.30 | 40.8AB % | 55.7A % | – | – | – | – | – | – | – | – | Leaf blast disease index before first administration (Rice blast [3]; [6]): 1.61
Cc1cccc2sc3nncn3c12 [CK3, Tricyclazole] | – | – | – | 0.65 | 74.7A % | 2.04 | 2.14 | 48.2A % | 60.3A % | – | – | – | – | – | – | – | – | Leaf rust before administration (Rice blast [3]; [6]): 1.59
CN1CSC(=S)N(C)C1 [Dazomet, dazomet] | −119.21% | −116.47% | −0.4% | – | – | – | – | – | – | 429 strip/100 mL soil | 940 strip/100 mL soil | 100.6a cm | 98.5 cm | 103.5 cm | 26.44ab | 27.33 | 26.33 | Control effect on root-knot index (Meloidogyne incognita [4]; [7]): 26.77%
O=C(NCc1ncc(C(F)(F)F)cc1Cl)c1c(Cl)cccc1Cl [Fluopicolide, fluopicolide] | 73.31% | 76.05% | 6.5% | – | – | – | – | – | – | 390 strip/100 mL soil | 104 strip/100 mL soil | 107.6bc cm | 109.4 cm | 109.3 cm | 25.00a | 28.33 | 24.67 | Growth effect (Meloidogyne incognita [4]; [7]): 30.77%
